From patent publication US12104176B2, “Efficient cell culture system for hepatitis C virus genotype 6A” (priority 2018, dated 2024)
Like-named read-outs stand apart in the source and are kept apart here. Marks after values point to notes of the source that are not given here.

Key:
HK2 (6a) = details: for EC50: Hepatitis C virus, Huh7.5, read-out: EC50, nM (95% CI), HK2 (6a); for Fold to TN, HK2 (6a): fold change in EC50 compared to TN
Description: (§1) Huh7.5 cells were seeded in 96-well plates and then infected with the indicated viruses. TN (1a) was used as a comparative control. 24 h after infection, cells were treated with the indicated NS5A inhibitor for 48 h. Values are means of triplicates±SEM. Concentration-response curves were calculated as previously described^26.
(§2) All concentration-response treatment experiments were performed using established methods^16,18,26. For half-maximal effective concentration (EC50) value calculations, a sigmoidal concentration-response curve was fitted using GraphPad Prism 6^18,26.

TN (1a) = test: Concentration-response treatment of infected Huh7.5 cells, TN (1a) control virus; details: Hepatitis C virus, Huh7.5, read-out: EC50, nM (95% CI), TN (1a)
Description: as §1, §2

HK6a (6a) = test: Concentration-response treatment of infected Huh7.5 cells, HK6a full-length virus; details: for EC50: Hepatitis C virus, Huh7.5, read-out: EC50, nM (95% CI), HK6a (6a); for Fold to TN, HK6a (6a): fold change in EC50 compared to TN
Description: as §1, §2

[1] = system: HK6a-SOFesc, S282T (NS5B); type: cell-based, HCV genotype 6a; details: HK6a-SOFesc vs original HK6a
[2] = system: HK6a-VELesc/PIB(3 nM)esc, V21A + L28S + L31V (NS5A); type: cell-based, HCV genotype 6a; details: HK6a-VELesc/PIB(3 nM)esc vs original HK6a
[3] = system: HK6a full-length virus (original); details: for day from which no HCV-antigen positive cells were detectable: HK6a original virus; for outcome of long-term treatment (resistance selection) / outcome of long-term treatment: HK6a; for outcome of long-term treatment: velpatasvir (10 nM) and sofosbuvir (570 nM), individually or combined
Description: Long-term treatment was performed for HK6a viruses as described in Materials and Methods. (A): Percentage HCV-antigen positive cells determined by evaluation of Core/NS5A-antigen positive versus total number of cells during treatment (y-axis) at the indicated time points (x-axis) (top panel). […] Changes in HCV RNA levels (y-axis) related to day 0 (treatment initiated), were determined from supernatants at corresponding time-points (x-axis) (bottom panel)^18. (B-D): Combination treatment of sofosbuvir (570 nM) and different concentrations of velpatasvir [0.1(10x−EC50), 1(100x−EC50), 10(1000x−EC50) nM], were performed with HK6a escape viruses compared with original viruses.
For long-term DAA treatments, Huh7.5 cells were infected with second-passage supernatants of HK2(H77_3′XSLI)-17m or HK6a(FL)-12m viruses (Table 1, FIG. 1F). […] Treatments were carried out in T25 flasks, and drugs were diluted in medium at the indicated concentration. Drugs were added every 2-3 days when cells were split. HCV RNA levels were determined using supernatants collected at indicated time points as described^18. The percentage of HCV positive cells, at indicated time-points, was determined by immunostaining, and supernatants were collected and stored at −80° C. for further analysis. At day 25 after initiation of treatment, cultures with no detectable HCV positive cells were divided into 2 flasks, and one of the replicates was cultured without drug. These untreated cultures were followed for 2 weeks and if no HCV positive cells were detected by immunostaining, the infection was considered cleared.

HK2-VELesc, L31V (NS5A) = type: cell-based, HCV genotype 6a; details: HK2-VELesc vs original HK2
[4] = system: HK6a velpatasvir escape virus harboring NS5A-L31V; type: cell-based; details: pibrentasvir 0.3, 3 and 10 nM
[5] = system: HK6a-VELesc/PIB(10 nM)esc, L28S + L31V (NS5A); type: cell-based, HCV genotype 6a; details: HK6a-VELesc/PIB(10 nM)esc (L28S+L31V) vs original HK6a
[6] = system: HK6a-SOFesc/VELesc, S282T (NS5B)/L28S (NS5A); type: cell-based, HCV genotype 6a; details: HK6a-SOFesc/VELesc (L28S) vs original HK6a
HK6a-VELesc, L31V (NS5A) = type: cell-based, HCV genotype 6a; details: HK6a-VELesc vs original HK6a
[7] = system: escape viruses with RAS NS5B-S282T (HK2 and HK6a); type: cell-based, HCV genotype 6a; details: escape viruses generated in drug-free cultures, FIGS. 4A, B
[8] = system: HK2cc recombinant viruses with NS5B-S282T
HK2-SOFesc, S282T (NS5B) = type: cell-based, HCV genotype 6a; details: HK2-SOFesc vs original HK2
HK2cc = test: microbe, parasite or virus in culture; type: cell-based; details: Hepatitis C virus; HK2cc in separate experiment of FIG. 4
[9] = system: velpatasvir escape viruses of HK2 and HK6a (NS5A-L31V); type: cell-based, HCV genotype 6a; details: drug-free passage stocks of HK2 and HK6a escape viruses, FIG. 3A
[10] = Huh7.5 cells, treated 24 h after infection for 48 h, ni = not inhibited at highest concentration used

| Structure (SMILES) | EC50 (HK2 (6a)) | Fold to TN, HK2 (6a) (HK2 (6a)) | EC50 (TN (1a)) | EC50 (HK6a (6a)) | Fold to TN, HK6a (6a) (HK6a (6a)) | also measured |
| --- | --- | --- | --- | --- | --- | --- |
| COc1ccc2c(c1)[C@@H]1C[C@]1(C(=O)N1[C@@H]3CC[C@H]1CN(C)C3)Cn1c-2c(C2CCCCC2)c2ccc(C(=O)NS(=O)(=O)N(C)C)cc21 [Beclabuvir] | 28.1 nM | 5.3 fold | 5.3 nM | 34.1 nM | 6.4 fold |  |
| COC(=O)N[C@H](C(=O)N1CCC[C@H]1c1nc(-c2ccc(-c3ccc(-c4c[nH]c([C@@H]5CCCN5C(=O)[C@@H](NC(=O)OC)C(C)C)n4)cc3)cc2)c[nH]1)C(C)C [Daclatasvir] |  |  | 0.019 nM | 0.014 nM |  |  |
| COc1c(-c2ccc3cc(NS(C)(=O)=O)ccc3c2)cc(-n2ccc(=O)[nH]c2=O)cc1C(C)(C)C [Dasabuvir] | 267 nM | 7.5 fold | 35.5 nM | 434 nM | 12.2 fold |  |
| COC(=O)N[C@H](C(=O)N1CCC[C@H]1c1nc(-c2ccc3c(c2)O[C@@H](c2ccccc2)n2c-3cc3cc(-c4c[nH]c([C@@H]5CCCN5C(=O)[C@@H](NC(=O)OC)C(C)C)n4)ccc32)c[nH]1)C(C)C [Elbasvir] | 0.017 nM | 2.8 fold | 0.006 nM | 0.009 nM | 1.5 fold |  |
| CNC(=O)c1c(-c2ccc(F)cc2)oc2cc(N(CCO)S(C)(=O)=O)c(C3CC3)cc12 [HCV-796] | 24 nM | 0.9 fold | 26 nM | 131 nM | 5.0 fold |  |
| COC(=O)N[C@H](C(=O)N1CC2(CC2)C[C@H]1c1nc(-c2ccc3c(c2)C(F)(F)c2cc(-c4ccc5[nH]c([C@@H]6[C@H]7CC[C@H](C7)N6C(=O)[C@@H](NC(=O)OC)C(C)C)nc5c4)ccc2-3)c[nH]1)C(C)C [Ledipasvir] | 0.228 nM | 45.6 fold | 0.005 nM | 0.346 nM | 69.2 fold |  |
| CC(C)(C)C#Cc1cc(N(C(=O)[C@H]2CC[C@H](C)CC2)[C@H]2CC[C@H](O)CC2)c(C(=O)O)s1 [Lomibuvir] | > 4000 nM |  | 27.6 nM | > 4000 nM |  | EC50, nM (95% CI), HK2 (6a) (HK2 (6a); [10]): ni; EC50, nM (95% CI), HK6a (6a) (HK6a (6a); [10]): ni |
| CC(C)OC(=O)[C@@H](C)N[P@@](=O)(OC[C@H]1O[C@@H](n2ccc(=O)[nH]c2=O)[C@](C)(Cl)[C@@H]1O)Oc1ccccc1 [MK-3682] | 370 nM | 0.9 fold | 392 nM | 522 nM | 1.3 fold |  |
| COC(=O)N[C@H](C(=O)N1CCC[C@H]1C(=O)Nc1ccc([C@@H]2CC[C@@H](c3ccc(NC(=O)[C@@H]4CCCN4C(=O)[C@@H](NC(=O)OC)C(C)C)cc3)N2c2ccc(C(C)(C)C)cc2)cc1)C(C)C [Ombitasvir] | 0.6 nM | 300.0 fold | 0.002 nM | 2.2 nM | 1100.0 fold |  |
| COC(=O)N[C@H](C(=O)N1CCC[C@H]1c1nc2cc([C@H]3CC[C@H](c4cc5nc([C@@H]6CCCN6C(=O)[C@@H](NC(=O)OC)[C@@H](C)OC)[nH]c5cc4F)N3c3cc(F)c(N4CCC(c5ccc(F)cc5)CC4)c(F)c3)c(F)cc2[nH]1)[C@@H](C)OC [Pibrentasvir] | 0.002 nM | 0.6 fold | 0.004 nM | 0.004 nM | 1.0 fold | Fold-change EC50 to original virus [1]: 1 fold; Fold-change EC50 to original virus [2]: 85.500 fold; day from which no HCV-antigen positive cells were detectable ([3]; pibrentasvir 0.3 nM): 7 days; day from which no HCV-antigen positive cells were detectable ([3]; pibrentasvir 3 nM): 5 days; day from which no HCV-antigen positive cells were detectable ([3]; pibrentasvir 10 nM): 5 days; outcome of long-term treatment (resistance selection) ([3]; PIB 0.3 nM): Infection cleared; outcome of long-term treatment (resistance selection) ([3]; PIB 3 nM): Infection cleared; outcome of long-term treatment (resistance selection) ([3]; PIB 10 nM): Infection cleared; Fold-change EC50 to original virus (HK2-VELesc, L31V (NS5A)): 1 fold; outcome of long-term treatment [4]: escaped the treatment at all concentrations; Fold-change EC50 to original virus [5]: 79.000 fold; Fold-change EC50 to original virus [6]: 250 fold; Fold-change EC50 to original virus (HK6a-VELesc, L31V (NS5A)): 1 fold |
| CC(C)OC(=O)[C@H](C)N[P@](=O)(OC[C@H]1O[C@@H](n2ccc(=O)[nH]c2=O)[C@](C)(F)[C@@H]1O)Oc1ccccc1 [Sofosbuvir] | 393 nM | 0.8 fold | 481 nM | 513 nM | 1.1 fold | Fold-change EC50 to original virus [1]: ≥8^d fold; fold increase in EC50 [7]: ≥ 8 fold; fold lower sensitivity compared with HK2cc [8]: 3 to 5 fold; outcome of long-term treatment [3]: failed to fully suppress the infection; Fold-change EC50 to original virus (HK2-SOFesc, S282T (NS5B)): 7.9 fold; EC50 (HK2cc): 653 nM |
| COC[C@H]1C[C@@H](c2nc(-c3ccc4c(c3)COc3cc5c(ccc6nc([C@@H]7CC[C@H](C)N7C(=O)[C@@H](NC(=O)OC)C(C)C)[nH]c65)cc3-4)c[nH]2)N(C(=O)[C@H](NC(=O)OC)c2ccccc2)C1 [Velpatasvir] | 0.007 nM | 1.4 fold | 0.005 nM | 0.011 nM | 2.2 fold | Fold-change EC50 to original virus [1]: 1 fold; Fold-change EC50 to original virus [2]: ≥992.928^d fold; outcome of long-term treatment [3]: failed to fully suppress the infection; Fold-change EC50 to original virus (HK2-VELesc, L31V (NS5A)): 3066 fold; Fold-change EC50 to original virus [5]: > 899.000 fold; Fold-change EC50 to original virus ([5]; listed as VEL): ≥899.214^d fold; Fold-change EC50 to original virus [6]: ~58.000 fold; Fold-change EC50 to original virus ([6]; listed as VEL): 58.105 fold; fold increase in EC50 in comparison with the pre-treatment virus [9]: 2- to 3 thousand; Fold-change EC50 to original virus (HK6a-VELesc, L31V (NS5A)): 2384 fold |
